According to patent US10906894B2, “Compounds containing benzo[d][1,3]oxathiole, benzo[d][1,3]oxathiole 3-oxide or benzo[d][1,3]oxathiole 3,3-dioxide and methods/uses thereof as agonists of g protein-coupled receptor 119” (PRAMANA PHARMACEUTICALS INC., priority 2016, dated 2021):

Biological target: T1, GPR119 (Homo sapiens, UniProt Q8TDV5)
T1 sequence (Q8TDV5 1-335): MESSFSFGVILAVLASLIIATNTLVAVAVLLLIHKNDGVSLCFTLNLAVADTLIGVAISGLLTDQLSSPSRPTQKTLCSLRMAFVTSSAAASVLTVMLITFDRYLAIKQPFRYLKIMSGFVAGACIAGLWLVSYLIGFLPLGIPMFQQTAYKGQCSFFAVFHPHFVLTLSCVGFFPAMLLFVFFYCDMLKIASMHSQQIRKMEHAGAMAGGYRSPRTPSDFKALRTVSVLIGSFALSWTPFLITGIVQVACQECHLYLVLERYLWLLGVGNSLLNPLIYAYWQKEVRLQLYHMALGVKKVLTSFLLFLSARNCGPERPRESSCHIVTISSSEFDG
Assay: LANCE Ultra cAMP assay: stimulation of GPR119-mediated cAMP production in CHO cells stably expressing human GPR119 receptor
Assay type: cell-based
Details: for Emax: CHO, read-out: % cAMP Max.
Protocol: The potency of GPR119 receptor agonists was assessed by measuring the stimulation of GPR119-mediated cAMP production with LANCE Ultra cAMP assay (Perkin Elmer, TRF0264) in CHO cells stably expressing human GPR119 receptor (Chantest, cat. #A633). CHO-GPR119 cells were cultured in DMEM/F12 medium supplemented with 10% FBS and 1% NEAA at 37° C., 5% CO2, aliquoted and frozen in liquid nitrogen.
(§1) For assay, cells were thawed in a water bath at 37° C., washed in Hank's Balanced Salt Solution (HBSS) and resuspended in Stimulation Buffer 1 (SB1) for 30 min: 5 mM HEPES, pH 7.2-7.4, 0.1% BSA in HBSS. […] The ULight-anti-cAMP antibody (Perkin Elmer, TRF0264) was added to the cell suspension making Mix [Cell suspension/4× ULight-anti-cAMP antibodies]. […] The assay plate was centrifuged 200 g, 5 sec.
Serial dilution (100×) of tested compounds were prepared in DMSO in the range of from 30 nM to 1 mM with half-log step in 384-well plates (Greiner, 781280) using Biomek 2000. 10 test concentrations in two repeats were prepared for each CRC. […] The assay plate was incubated 30 minutes at room temperature on a shaker, 250 rpm to allow GPR119 receptor stimulation. The cAMP level was determined according to the standard kit supplier protocol (PerkinElmer, cat. #TRF0264).
(§2) The stock solution of the Eu-cAMP tracer (Perkin Elmer, TRF0264) was diluted 1:100 in cAMP Detection Buffer (Perkin Elmer, TRF0264), making 2× working concentration and added to the assay plate, 10 μL per well. Assay plate was centrifuged 180 g, 1 sec. Then the assay plate was incubated for 60′ at room temperature on shaker, 250 rpm to allow cAMP detection. The TR-FRET signal was measured at Ex-340 nm/Em-615 and Ex-340 nm/Em-665 nm on the reader Tecan M1000. 0% of cAMP stimulation corresponds to the cells with DMSO only, 100% of cAMP stimulation corresponds to the cells with 10 uM Forskolin. The EC50 value defined as the concentration of the drug that gives half-maximal response, were calculated using GraphPad Prizm 5.0 software with forskolin was used as references at each test. Entries 1-17 in Table A-2 show the biological activity of certain representative compounds using the protocol as described above.
as §1, with “cell suspension,” for “cell suspension”
as §2, with “1-14” for “1-17”, “B-2” for “A-2”

[1] = Table B-2 entries 1-14, protocol as described (800 000 cells/mL, 5 uL/well), CHO-GPR119 cells
[2] = Table B-2 entries 15-39, modified protocol, 500 cells/well

Structure (SMILES)	EC50 [1] [nM]	Emax [2] [%]	EC50 [2] [nM]
CCc1cnc(N2CCC(COc3ccc(-c4ccc5c(c4)OC[S+]5[O-])cc3F)CC2)nc1 (stereo not drawn) [Example B-19]	4.8		
CC(C)CC(=O)N1CCC(COc2ccc(-c3ccc4c(c3)OC[S+]4[O-])cc2F)CC1 (stereo not drawn) [Example B-23, 1-(4-((2-Fluoro-4-(3-oxido-2H-benzo[d][1,3]oxathiol-6-yl)phenoxy)methyl)-piperidin-1-yl)-3-methylbutane-1-one]	46.2		
COc1cnc(N2CCC(COc3ccc(-c4ccc5c(c4)OC[S+]5[O-])cc3F)CC2)nc1 (stereo not drawn) [Example B-24, 6-(3-Fluoro-4-((1-(5-methoxypyrimidin-2-yl)piperidin-4-yl)methoxy)phenyl)-2H-benzo[d][1,3]oxathiole 3-oxide]	2.3		
CCc1ccnc(N2CCC(COc3ccc(-c4ccc5c(c4)OC[S+]5[O-])cc3F)CC2)n1 (stereo not drawn) [Example B-25]	31.8		
CCc1ccnc(N2CCC(COc3ccc(-c4ccc5c(c4)OCS5)cc3F)CC2)n1 [Example B-26]	> 500		
CCOc1cnc(N2CCC(COc3ccc(-c4ccc5c(c4)OC[S+]5[O-])cc3F)CC2)nc1 (stereo not drawn) [Example B-27, 6-(4-((1-(5-Ethoxypyrimidin-2-yl)piperidin-4-yl)methoxy)-3-fluorophenyl)-2H-benzo[d][1,3]oxathiole 3-oxide]	4.7		
CC(C)c1cnc(N2CCC(COc3ccc(-c4ccc5c(c4)OC[S+]5[O-])cc3F)CC2)nc1 (stereo not drawn) [Example B-28, 6-(3-Fluoro-4-((1-(5-isopropylpyrimidin-2-yl)piperidin-4-yl)methoxy)phenyl)-2H-benzo[d][1,3]oxathiole 3-oxide]	3		
[O-][S+]1COc2cc(-c3ccc(OCC4CCN(c5ccc(C(F)(F)F)cn5)CC4)c(F)c3)ccc21 (stereo not drawn) [Example B-29, 6-(3-Fluoro-4-((1-(5-(trifluoromethyl)pyridin-2-yl)piperidin-4-yl)methoxy)phenyl)-2H-benzo[d][1,3]oxathiole 3-oxide]	52		
[O-][S@+]1COc2cc(-c3ccc(OCC4CCN(c5ncc(Cl)cn5)CC4)c(F)c3)ccc21 [Example B-32, (S)-6-(4-((1-(5-chloropyrimidin-2-yl)piperidin-4-yl)methoxy)-3-fluorophenyl)-2H-benzo[d][1,3]oxathiole 3-oxide]	1.2		
CCc1ccnc(N2CCC(COc3ccc(-c4ccc5c(c4)OC[S+]5[O-])cc3F)CC2)n1 (stereo not drawn) [Example B-35, 6-(4-((1-(4-Ethylpyrimidin-2-yl)piperidin-4-yl)methoxy)-3-fluorophenyl)-2H-benzo[d][1,3]oxathiole 3-oxide]		61	27.3
CCc1cnc(N2CCC(COc3ccc(-c4ccc5c(c4)OCS5)cc3F)CC2)nc1 [Example B-37, 2-(4-((4-(Benzo[d][1,3]oxathiol-6-yl)-2-fluorophenoxy)methyl)piperidin-1-yl)-5-ethylpyrimidine]		79	365
CC(C)c1cnc(N2CCC(COc3ccc(-c4ccc5c(c4)OCS5)cc3F)CC2)nc1 [Example B-38, 2-(4-((4-(Benzo[d][1,3]oxathiol-6-yl)-2-fluorophenoxy)methyl)piperidin-1-yl)-5-isopropylpyrimidine]		78	10.5
COc1cnc(N2CCC(COc3ccc(-c4ccc5c(c4)OCS5)cc3F)CC2)nc1 [Example B-39, 2-(4-((4-(Benzo[d][1,3]oxathiol-6-yl)-2-fluorophenoxy)methyl)piperidin-1-yl)-5-methoxpyrimidine]		64	2900
CC(C)CC(=O)N1CCC(COc2ccc(-c3ccc4c(c3)OCS4)cc2F)CC1 [Example B-40, 1-(4-((4-(Benzo[d][1,3]oxathiol-6-yl)-2-fluorophenoxy)methyl)piperidin-1-yl)-3-methylbutan-1-one]		50	2000
CCc1cnc(N2CCC(COc3ccc(-c4ccc5c(c4)OC[S@@+]5[O-])cc3F)CC2)nc1 [Example B-45, (S)-6-(4-((1-(5-Ethylpyrimidin-2-yl)piperidin-4-yl)methoxy)-3-fluorophenyl)-2H-benzo[d][1,3]oxathiole 3-oxide]		68	2.3
